From ChEMBL document CHEMBL1201862, “PubChem BioAssay data set” (2004)
The source made the active and inactive calls.

Experiments:
[1] = biological target: Cytochrome P450 2C19 (Homo sapiens, UniProt P33261); test: Cytochrome panel assay with activity outcomes. Panel member name: p450-cyp2c19 Compounds with AC50 equal or less than 10 uM are considered active; assay type: functional
[2] = inhibitors of intracellular T. cruzi replication, confirmation, NIH3T3 host cells, beta-gal luminescence (AID 2044); assay type: functional, cell-based;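 note: intracellular parasites grown in NIH/3T3 mouse fibroblasts as host cells; luminescent beta-galactosidase reporter signal from transgenic T. cruzi replicating inside host cells; inhibitors lower the luminescence signal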
[3] = cytotoxicity toward NIH3T3 fibroblasts, dose response, counter-screen, cell-based, ATP luminescence, mouse fibroblasts (AID 2010); assay type: functional;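 note: cells exposed to compound for about 90 hours before reading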
[4] = biological target: Cytochrome P450 3A4 (Homo sapiens, UniProt P08684);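 note: CYP3A4 tested as one member of a cytochrome P450 panel screen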
[5] = biological target: Cytochrome P450 2D6 (Homo sapiens, UniProt P10635);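 note: CYP2D6 member of a cytochrome P450 panel assay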
[6] = biological target: Cytochrome P450 2C9 (Homo sapiens, UniProt P11712)
[7] = HEp-2 cell cytotoxicity, dose response, cytotoxicity control for RSV inhibitor project, HTS (AID 2410); assay type: functional; details: human respiratory syncytial virus
[8] = Luminescence Cell-Based Dose Retest to Confirm Inhibitors of Cancer Stem Cells. [Related pubchem assays (depositor defined):AID2717, AID2721]; assay type: functional; details: Homo sapiens
[9] = Shn3 3'UTR reporter inhibitors, dose response, cell-based, Clone20 osteoblasts, firefly luciferase, cherry-picked (AID 624132); assay type: functional;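 note: firefly luciferase luminescence from reporter carrying the Shn3 3'UTR in osteoblasts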
[10] = tested on: Streptococcus sp. 'group A'; test: growth inhibition of control SK(-) GAS strain, dose response, counter-screen for streptokinase expression inhibitor project, luminescence, kanamycin, BacTiterGlo, confirmation (AID 1900); assay type: functional, organism-based
[11] = tested on: Streptococcus; test: Group A Streptococcus viability loss, dose response, counter-screen for streptokinase expression inhibitor project, luminescence, BacTiterGlo (AID 1915); assay type: functional, organism-based;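 note: potency for reduction of bacterial viability or growth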

Cytochrome P450 2C9, sequence (P11712 whole entry): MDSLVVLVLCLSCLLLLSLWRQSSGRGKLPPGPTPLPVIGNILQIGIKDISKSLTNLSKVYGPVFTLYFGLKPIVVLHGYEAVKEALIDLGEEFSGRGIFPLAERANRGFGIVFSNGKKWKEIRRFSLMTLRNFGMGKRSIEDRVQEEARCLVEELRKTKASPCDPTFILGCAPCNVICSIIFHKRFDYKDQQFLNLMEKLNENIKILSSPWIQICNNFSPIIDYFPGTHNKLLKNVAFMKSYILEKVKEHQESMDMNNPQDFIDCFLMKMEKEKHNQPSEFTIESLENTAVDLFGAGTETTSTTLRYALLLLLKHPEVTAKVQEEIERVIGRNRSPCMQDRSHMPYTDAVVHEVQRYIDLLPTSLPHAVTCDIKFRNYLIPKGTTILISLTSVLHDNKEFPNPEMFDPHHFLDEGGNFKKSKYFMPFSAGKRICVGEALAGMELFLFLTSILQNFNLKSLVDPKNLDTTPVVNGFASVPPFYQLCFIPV
Cytochrome P450 2C19, sequence (P33261 whole entry): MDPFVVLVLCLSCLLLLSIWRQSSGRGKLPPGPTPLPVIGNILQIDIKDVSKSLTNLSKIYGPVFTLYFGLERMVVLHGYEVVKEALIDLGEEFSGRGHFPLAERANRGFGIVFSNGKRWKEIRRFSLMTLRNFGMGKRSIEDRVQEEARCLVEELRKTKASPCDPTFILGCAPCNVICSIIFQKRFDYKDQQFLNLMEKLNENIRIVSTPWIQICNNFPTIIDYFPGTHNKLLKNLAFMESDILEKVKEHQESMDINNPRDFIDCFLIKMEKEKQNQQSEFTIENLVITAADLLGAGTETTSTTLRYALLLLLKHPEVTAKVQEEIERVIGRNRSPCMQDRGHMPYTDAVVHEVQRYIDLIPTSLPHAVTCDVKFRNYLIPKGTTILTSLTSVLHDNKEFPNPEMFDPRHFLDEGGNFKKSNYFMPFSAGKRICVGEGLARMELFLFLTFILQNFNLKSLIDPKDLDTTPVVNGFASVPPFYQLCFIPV
Cytochrome P450 3A4, sequence (P08684 whole entry): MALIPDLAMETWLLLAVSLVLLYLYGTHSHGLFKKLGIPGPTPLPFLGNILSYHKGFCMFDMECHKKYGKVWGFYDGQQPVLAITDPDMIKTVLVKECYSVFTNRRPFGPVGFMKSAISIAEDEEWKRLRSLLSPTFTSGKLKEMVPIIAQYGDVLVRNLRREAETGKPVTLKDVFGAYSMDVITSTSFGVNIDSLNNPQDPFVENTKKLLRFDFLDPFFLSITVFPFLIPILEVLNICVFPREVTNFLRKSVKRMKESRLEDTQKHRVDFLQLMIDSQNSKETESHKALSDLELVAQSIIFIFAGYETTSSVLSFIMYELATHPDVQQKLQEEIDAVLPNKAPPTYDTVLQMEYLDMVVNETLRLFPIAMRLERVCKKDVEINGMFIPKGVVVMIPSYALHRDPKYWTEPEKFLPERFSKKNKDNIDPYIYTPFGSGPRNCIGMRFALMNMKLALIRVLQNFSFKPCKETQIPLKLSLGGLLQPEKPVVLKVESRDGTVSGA
Cytochrome P450 2D6, sequence (P10635 whole entry): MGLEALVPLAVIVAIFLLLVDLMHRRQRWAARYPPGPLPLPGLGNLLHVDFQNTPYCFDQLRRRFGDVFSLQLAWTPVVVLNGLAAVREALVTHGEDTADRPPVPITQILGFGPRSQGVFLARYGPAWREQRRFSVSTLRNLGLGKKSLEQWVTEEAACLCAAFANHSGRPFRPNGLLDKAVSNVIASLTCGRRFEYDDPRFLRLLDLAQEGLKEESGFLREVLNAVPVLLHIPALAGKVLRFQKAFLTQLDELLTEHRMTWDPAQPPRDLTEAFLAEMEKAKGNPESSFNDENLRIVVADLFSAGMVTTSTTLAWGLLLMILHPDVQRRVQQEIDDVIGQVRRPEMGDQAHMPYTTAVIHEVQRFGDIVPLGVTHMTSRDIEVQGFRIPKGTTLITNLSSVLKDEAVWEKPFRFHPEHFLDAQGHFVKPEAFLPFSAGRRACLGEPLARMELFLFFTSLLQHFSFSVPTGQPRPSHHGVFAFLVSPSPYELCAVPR

## Cc1sc2nc(SCC(=O)C(C)(C)C)n(Cc3ccco3)c(=O)c2c1C
[1]; read-out: AC50
  AC50: 5.01 µM (inconclusive)

## COC(=O)c1cc(NC(=O)c2cc(-c3ccc(Cl)cc3)oc2C(F)(F)F)ccc1N1CCOCC1
[2]
  EC50: 3.3 µM (active)
[3]
  EC50: > 60 µM (not active)

## C[C@@H]1O[C@H](O[C@@H]2CC[C@@]3(C=O)[C@H]4CC[C@@]5(C)[C@@H](C6=CC(=O)OC6)CC[C@@]5(O)[C@@H]4CC[C@]3(O)C2)C[C@H](O)[C@@H]1O
[4]
  AC50: 15.8 µM (inconclusive)

## Cc1ccc(N(C(C)C(=O)Nc2cc(Cl)ccc2Oc2ccccc2)S(C)(=O)=O)cc1 (stereo not given)
[5]
  AC50: 15.8 µM (inconclusive)

## c1ccc(Nc2nc(-c3ccncc3)cs2)nc1
[2]
  EC50: 0.526 µM (active)
[3]
  EC50: > 60 µM (not active)

## CCOC(=O)CSc1cc(C(F)(F)F)nc(-c2ccccn2)n1
[1]; read-out: AC50
  AC50: 17.8 µM (inconclusive)
[6]
  AC50: 39.8 µM (inconclusive)

## COc1ccc2cc(S(=O)(=O)n3cnc(C)c3)ccc2c1
[7]
  CC50: > 50 µM (active)

## O=C(Cn1ccnc1)c1ccc(Cl)cc1
[2]
  EC50: > 30 µM (not active)
[3]
  EC50: > 30 µM (not active)

## CC(C)COP(=O)(c1ccc(N(C)C)cc1)C(O)c1ccccc1F (stereo not given)
[4]
  AC50: 3.98 µM (inconclusive)
[6]
  AC50: 12.6 µM (inconclusive)

## CC1CC(C)CN(C(=O)c2cc3cc(Br)cc(Br)c3o2)C1 (stereo not given)
[7]
  CC50: 18.9 µM (active)

## Cc1c(C2(O)CCCCC2)[nH]c2cc(C(F)(F)F)ccc12
[8]
  AC50: 7.81 µM (active)

## CCCCCOc1ccc(C(=O)NCC2(c3ccccc3)CCOCC2)cc1
[4]
  AC50: 31.6 µM (inconclusive)

## CCOC(=O)c1c(NC(=O)c2nn(CC)cc2Br)sc(C)c1C
[9]
  AC50: 11 µM (active)

## CCN1CCN(CC(=O)Nc2ccc(S(=O)(=O)N3C(C)CCCC3C)cc2)CC1 (stereo not given)
[2]
  EC50: 1.07 µM (active)
[3]
  EC50: > 60 µM (not active)

## COc1c(N2CCN(C(S)=Nc3ccc(F)cc3)C(C)C2)c(F)cc2c(=O)c(C(=O)O)cn(C3CC3)c12 (stereo not given)
[10]
  EC50: 4.5 µM (active)
[11]
  EC50: 5.79 µM (active)

## O=C(Nc1ccccc1N1CCOCC1)c1cc2c(s1)CCCCC2
[7]
  CC50: > 50 µM (active)

## CCCn1cnc2c(SCC(=O)O)nc(N)nc21
[1]
  AC50: inconclusive

## CCOc1cc(NC(=O)c2cccc(C)c2)c(OCC)cc1N=C(S)NCC1CCCO1 (stereo not given)
[6]
  AC50: 7.94 µM (inconclusive)

## O=C(O)c1cc2c(ccc3ccccc32)[nH]1
[7]
  CC50: 30.9 µM (active)

## COc1ccc2c(=O)cc(-c3ccncc3)oc2c1OC
[4]
  AC50: 3.98 µM (inconclusive)

## Oc1ccc2c3c1O[C@H]1c4oc5ccccc5c4C[C@]4(O)[C@H](C2)N(CC2CC2)CC[C@@]314
[4]
  AC50: 20 µM (inconclusive)

## COc1c(N2CCN(C(=S)Nc3ccc(F)cc3)C(C)C2)c(F)cc2c(=O)c(C(=O)O)cn(C3CC3)c12 (stereo not given)
[1]; read-out: AC50
  AC50: 39.8 µM (inconclusive)

## CC(=O)N1CCC2(CC1)CN(c1ccccc1)C2
[1]
  AC50: inconclusive

## Oc1nc2ccc(Br)cc2c(-c2ccccc2)c1CN1CCOCC1
[7]
  CC50: 48.4 µM (active)

## C=C(Br)CN(C)CC(=C)Br
[1]
  AC50: inconclusive

## COc1cccc(/N=C/c2c[nH]nc2O)c1
[1]; read-out: AC50
  AC50: 35.5 µM (inconclusive)
[6]
  AC50: 20 µM (inconclusive)

## CCOC(=O)c1nnn(-c2nonc2N)c1-c1ccccc1
[6]
  AC50: 10 µM (inconclusive)

## COc1ccc(C)cc1Nc1n[n+](-c2ccccc2)c(-c2cccc(Cl)c2Cl)s1
[2]
  EC50: 3 µM (active)
[3]
  EC50: 15.4 µM (active)

## ON(CCc1ccccn1)Cc1ccccc1
[4]
  AC50: 3.98 µM (inconclusive)

## C=CCn1c(SCC(=O)NC2CCCCC2)nnc1C1CCCCC1
[1]
  AC50: inconclusive
[6]
  AC50: 28.2 µM (inconclusive)

## CCOC(=O)[C@@H](O)Cc1cnc2ccccc2n1
[6]
  AC50: 3.98 µM (inconclusive)

## CCNC(=Nc1ccc(Cl)cc1)c1cccnc1
[1]; read-out: AC50
  AC50: 1.78 µM (inconclusive)
[4]
  AC50: 22.4 µM (inconclusive)

## CC(Oc1ccc(-c2ccccc2)c(F)c1)c1ccn(S(=O)(=O)c2ccc(Cl)cc2)n1 (stereo not given)
[4]
  AC50: 15.8 µM (inconclusive)

## N#C/C(=C\c1ccc(Oc2ccc(C(F)(F)F)cc2[N+](=O)[O-])cc1)c1nc2ccccc2[nH]1
[4]
  AC50: 11.2 µM (inconclusive)

## Cc1cc(C(=O)N2CCc3c([nH]c4ccccc34)C2c2cccc(Cl)c2)nn1C (stereo not given)
[2]
  EC50: 2.17 µM (active)
[3]
  EC50: > 60 µM (not active)

## FC(F)(F)c1cnc(N2CCC(=NOCc3ccc(Cl)cc3)CC2)c(Cl)c1
[1]; read-out: AC50
  AC50: 20 µM (inconclusive)

## C[C@]12CCC3C(CC[C@H]4CC(O)CC[C@]34C)C1CC/C2=N/O (stereo not given in full)
[7]
  CC50: > 50 µM (active)

## CCCCNc1c(-c2ccc(SC(C)CC)cc2)nc2ccccn12 (stereo not given)
[8]
  AC50: 4.29 µM (active)
